Data from ChEMBL document CHEMBL5260810, “Inhibition of bromodomain-containing protein 9 for the prevention of epigenetically-defined drug resistance” (Bioorg Med Chem Lett, 2017).

Tests used:
[1] = target: T1, ATPase family AAA domain-containing protein 2 (Homo sapiens, UniProt Q6PL18); experiment: Binding affinity to human partial length ATAD2A (Q981 to R1108 residues) expressed in bacterial expression system by BROMOscan assay
T1 sequence (Q6PL18 whole entry): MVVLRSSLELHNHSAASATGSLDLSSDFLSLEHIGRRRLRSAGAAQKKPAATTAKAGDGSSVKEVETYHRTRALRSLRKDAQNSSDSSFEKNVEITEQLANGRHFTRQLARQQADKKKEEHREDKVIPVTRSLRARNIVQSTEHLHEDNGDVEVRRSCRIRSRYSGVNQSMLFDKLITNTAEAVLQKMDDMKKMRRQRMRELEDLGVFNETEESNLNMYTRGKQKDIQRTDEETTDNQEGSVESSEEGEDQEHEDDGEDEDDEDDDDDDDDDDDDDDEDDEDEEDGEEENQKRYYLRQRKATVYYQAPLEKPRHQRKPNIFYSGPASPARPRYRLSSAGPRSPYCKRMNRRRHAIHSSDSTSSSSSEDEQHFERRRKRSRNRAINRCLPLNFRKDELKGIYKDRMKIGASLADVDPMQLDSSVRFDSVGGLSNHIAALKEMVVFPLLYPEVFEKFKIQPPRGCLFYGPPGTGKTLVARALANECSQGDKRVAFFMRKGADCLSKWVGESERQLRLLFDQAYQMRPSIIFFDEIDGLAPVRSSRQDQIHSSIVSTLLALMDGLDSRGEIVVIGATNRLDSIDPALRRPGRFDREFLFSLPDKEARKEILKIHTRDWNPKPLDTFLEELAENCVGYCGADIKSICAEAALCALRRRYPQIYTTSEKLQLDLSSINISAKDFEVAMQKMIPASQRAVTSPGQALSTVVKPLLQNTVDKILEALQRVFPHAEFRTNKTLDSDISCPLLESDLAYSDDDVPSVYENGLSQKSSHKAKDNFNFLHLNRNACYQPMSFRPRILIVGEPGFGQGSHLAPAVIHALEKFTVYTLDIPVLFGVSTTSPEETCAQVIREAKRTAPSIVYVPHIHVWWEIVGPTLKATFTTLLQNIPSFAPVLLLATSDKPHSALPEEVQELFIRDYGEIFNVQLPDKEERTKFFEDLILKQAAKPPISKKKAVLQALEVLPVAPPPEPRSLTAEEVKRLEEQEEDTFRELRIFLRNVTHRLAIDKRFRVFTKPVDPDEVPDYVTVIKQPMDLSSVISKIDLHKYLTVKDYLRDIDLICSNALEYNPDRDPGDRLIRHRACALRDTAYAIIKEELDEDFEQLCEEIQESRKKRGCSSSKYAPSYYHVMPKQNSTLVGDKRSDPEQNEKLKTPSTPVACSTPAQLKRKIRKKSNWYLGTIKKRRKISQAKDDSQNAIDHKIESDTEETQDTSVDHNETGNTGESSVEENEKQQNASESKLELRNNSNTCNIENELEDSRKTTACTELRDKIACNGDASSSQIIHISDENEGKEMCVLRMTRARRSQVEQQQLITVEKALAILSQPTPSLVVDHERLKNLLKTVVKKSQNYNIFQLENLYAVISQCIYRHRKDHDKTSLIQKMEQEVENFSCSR

[2] = Cytotoxicity against human NCI-H2803 cells measured after 8 days; format: functional, cell-based; details: NCI-H2803, 192 h
[3] = system: NCI-H2452; experiment: Cytotoxicity against human NCI-H2452 cells measured after 8 days; format: functional, cell-based; details: NCI-H2452, 192 h
[4] = system: NCI-H1651; experiment: Cytotoxicity against human NCI-H1651 cells measured after 8 days; format: functional, cell-based; details: NCI-H1651, 192 h
[5] = system: SKM-1; experiment: Cytotoxicity against human SKM-1 cells measured after 8 days; format: functional, cell-based; details: SKM-1, 192 h
[6] = system: HCC1806; experiment: Cytotoxicity against human HCC1806 cells measured after 8 days; format: functional, cell-based; details: HCC1806, 192 h
[7] = system: LNCaP; experiment: Cytotoxicity against human LNCaP clone FGC cells measured after 8 days; format: functional, cell-based; details: 192 h
[8] = target: T2, Transcription intermediary factor 1-alpha (Homo sapiens, UniProt O15164); experiment: Binding affinity to human partial length TRIM24 (P790 to P977 residues) expressed in bacterial expression system by BROMOscan assay
T2 sequence (O15164 whole entry): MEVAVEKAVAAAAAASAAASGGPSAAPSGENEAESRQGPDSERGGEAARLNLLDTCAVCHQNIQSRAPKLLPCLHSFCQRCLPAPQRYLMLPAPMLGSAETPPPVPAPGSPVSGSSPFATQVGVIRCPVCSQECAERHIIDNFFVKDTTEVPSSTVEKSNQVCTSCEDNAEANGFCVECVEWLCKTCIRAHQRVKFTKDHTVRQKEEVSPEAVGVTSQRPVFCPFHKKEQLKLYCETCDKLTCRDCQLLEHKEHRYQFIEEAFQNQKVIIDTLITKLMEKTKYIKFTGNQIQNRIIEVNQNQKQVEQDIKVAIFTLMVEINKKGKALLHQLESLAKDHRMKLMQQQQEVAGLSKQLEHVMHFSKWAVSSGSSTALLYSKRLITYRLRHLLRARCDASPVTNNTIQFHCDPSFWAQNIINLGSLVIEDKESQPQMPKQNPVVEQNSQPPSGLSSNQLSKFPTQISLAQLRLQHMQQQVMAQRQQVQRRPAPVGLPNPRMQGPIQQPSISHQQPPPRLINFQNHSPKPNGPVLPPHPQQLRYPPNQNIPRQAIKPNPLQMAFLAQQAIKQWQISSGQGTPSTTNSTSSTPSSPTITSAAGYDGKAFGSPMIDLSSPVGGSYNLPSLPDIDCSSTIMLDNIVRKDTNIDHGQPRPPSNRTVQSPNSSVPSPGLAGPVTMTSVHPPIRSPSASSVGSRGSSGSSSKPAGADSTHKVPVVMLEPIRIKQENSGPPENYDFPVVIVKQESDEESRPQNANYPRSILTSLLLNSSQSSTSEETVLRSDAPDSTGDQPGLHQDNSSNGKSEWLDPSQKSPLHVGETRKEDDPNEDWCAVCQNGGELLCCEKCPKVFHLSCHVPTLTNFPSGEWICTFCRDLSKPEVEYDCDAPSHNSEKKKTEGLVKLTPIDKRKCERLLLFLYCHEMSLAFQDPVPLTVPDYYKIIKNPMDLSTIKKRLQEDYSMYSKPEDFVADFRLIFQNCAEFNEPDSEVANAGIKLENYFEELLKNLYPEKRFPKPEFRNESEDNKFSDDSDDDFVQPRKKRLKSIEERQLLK

[9] = species: Rattus norvegicus; experiment: Displacement of [125I]alpha-dendrotoxin from rat brain voltage-gated K channel at 10 uM after 60 mins by scintillation counting analysis relative to control
[10] = system: K562; experiment: Cytotoxicity against human K562 cells measured after 8 days; format: functional, cell-based; details: K562, 192 h
[11] = system: BT-549; experiment: Cytotoxicity against human BT-549 cells measured after 8 days; format: functional, cell-based; details: BT-549, 192 h

Row | SMILES | Kd [1] | IC50 [2] | IC50 [3] | IC50 [4] | IC50 [5] | IC50 [6] | IC50 [7] | Kd [8] | Activity [9] | IC50 [10] | IC50 [11]
1 | C/C=C/Cn1cc(-c2ccc(C(C)(C)O)cc2OC)c2cc[nH]c2c1=O | > 10 µM | 20 µM | 20 µM | 20 µM | 20 µM | 20 µM | 19.9 µM | > 10 µM | -1% | 20 µM | 12.2 µM
2 | C/C=C/Cn1cc(-c2ccc(C(=O)N3CCOCC3)cc2)c2cc[nH]c2c1=O | > 10 µM | 20 µM | 20 µM | 20 µM | 13.9 µM | 20 µM | 16.5 µM | 26 µM | 0% | 20 µM | 20 µM
3 | C/C=C/Cn1cc(-c2cc(OC)c(C(C)(C)O)cc2OC)c2cc(C)[nH]c2c1=O | 9.3 µM |  |  |  |  |  |  | > 10 µM |  |  | 
4 | C/C=C/Cn1cc(-c2cc(OC)c(C(=O)N3CCOCC3)cc2OC)c2cc(C)[nH]c2c1=O | > 10 µM | 2 µM | 2 µM | 2 µM | 2 µM | 2 µM | 2 µM | > 10 µM | 2% | 2 µM | 2 µM
